Columns and labels:
Assay in all cases: KINOMEscan competition binding
Conditions in all cases: compound 10.0 µM
ADCK3 (human) = ADCK3 (human) (UniProt Q8NI60)
AURKC (human) = AURKC (human) (UniProt Q9UQB9)
BMPR2 (human) = BMPR2 (human) (UniProt Q13873)
CAMK1D (human) = CAMK1D (human) (UniProt Q8IU85)
CAMK2D (human) = CAMK2D (human) (UniProt Q13557)
CAMK2G (human) = CAMK2G (human) (UniProt Q13555)
CDK9 (human) = CDK9 (human) (UniProt P50750)
CLK1 (human) = CLK1 (human) (UniProt P49759)
CLK3 (human) = CLK3 (human) (UniProt P49761)
CSK (human) = CSK (human) (UniProt P41240)
CSNK1D (human) = CSNK1D (human) (UniProt P48730)
Chain of CSNK1D (human) (P48730 whole entry, looked up): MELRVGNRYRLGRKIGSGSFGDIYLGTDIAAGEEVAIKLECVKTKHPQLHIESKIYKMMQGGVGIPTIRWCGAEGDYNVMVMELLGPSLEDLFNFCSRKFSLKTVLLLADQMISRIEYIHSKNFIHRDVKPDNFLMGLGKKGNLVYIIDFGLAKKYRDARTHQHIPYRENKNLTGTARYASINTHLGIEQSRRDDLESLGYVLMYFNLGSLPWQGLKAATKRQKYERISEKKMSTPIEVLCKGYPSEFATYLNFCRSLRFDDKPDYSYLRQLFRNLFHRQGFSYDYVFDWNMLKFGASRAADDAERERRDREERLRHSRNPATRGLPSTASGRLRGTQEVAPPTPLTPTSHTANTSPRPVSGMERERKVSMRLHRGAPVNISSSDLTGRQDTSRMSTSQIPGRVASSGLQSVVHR

CSNK1G2 (human) = CSNK1G2 (human) (UniProt P78368)
CSNK1G3 (human) = CSNK1G3 (human) (UniProt Q9Y6M4)
DCLK3 (human) = DCLK3 (human) (UniProt Q9C098)
EPHA8 (human) = EPHA8 (human) (UniProt P29322)
FYN (human) = FYN (human) (UniProt P06241)
Chain of FYN (human) (P06241 whole entry, looked up): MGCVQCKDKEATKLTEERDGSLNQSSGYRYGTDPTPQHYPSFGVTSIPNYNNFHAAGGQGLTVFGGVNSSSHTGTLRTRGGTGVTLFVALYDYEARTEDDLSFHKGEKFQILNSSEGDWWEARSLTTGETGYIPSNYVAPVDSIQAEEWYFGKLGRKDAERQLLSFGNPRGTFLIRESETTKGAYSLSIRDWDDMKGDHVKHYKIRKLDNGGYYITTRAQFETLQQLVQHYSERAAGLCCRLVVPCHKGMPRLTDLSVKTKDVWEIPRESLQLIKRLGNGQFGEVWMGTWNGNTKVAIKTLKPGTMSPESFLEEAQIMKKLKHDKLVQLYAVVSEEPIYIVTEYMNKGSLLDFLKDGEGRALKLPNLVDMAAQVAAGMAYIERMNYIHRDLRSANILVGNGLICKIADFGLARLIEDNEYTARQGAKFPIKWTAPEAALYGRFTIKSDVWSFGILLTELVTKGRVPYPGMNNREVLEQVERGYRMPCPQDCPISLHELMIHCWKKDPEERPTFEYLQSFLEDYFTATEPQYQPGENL

INSR (human) = INSR (human) (UniProt P06213)
INSRR (human) = INSRR (human) (UniProt P14616)
LIMK1 (human) = LIMK1 (human) (UniProt P53667)
LYN (human) = LYN (human) (UniProt P07948)
Chain of LYN (human) (P07948 whole entry, looked up): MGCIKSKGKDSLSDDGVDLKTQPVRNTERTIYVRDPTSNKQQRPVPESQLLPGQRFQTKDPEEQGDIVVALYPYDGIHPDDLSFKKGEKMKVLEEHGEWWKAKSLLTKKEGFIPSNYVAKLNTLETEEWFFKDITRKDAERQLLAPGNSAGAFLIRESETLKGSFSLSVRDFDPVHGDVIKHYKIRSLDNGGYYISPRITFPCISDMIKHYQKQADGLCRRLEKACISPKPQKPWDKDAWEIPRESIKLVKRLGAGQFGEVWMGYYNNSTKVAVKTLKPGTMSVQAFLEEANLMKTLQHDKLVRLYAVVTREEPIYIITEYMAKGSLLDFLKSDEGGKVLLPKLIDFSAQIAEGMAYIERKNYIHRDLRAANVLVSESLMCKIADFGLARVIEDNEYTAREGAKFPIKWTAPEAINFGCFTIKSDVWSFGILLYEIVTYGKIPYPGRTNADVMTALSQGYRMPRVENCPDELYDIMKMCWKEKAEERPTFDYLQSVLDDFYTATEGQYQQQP

MAPK11 (human) = MAPK11 (human) (UniProt Q15759)
MAPK12 (human) = MAPK12 (human) (UniProt P53778)
MAPK8 (human) = MAPK8 (human) (UniProt P45983)
MAPKAPK5 (human) = MAPKAPK5 (human) (UniProt Q8IW41)
MARK3 (human) = MARK3 (human) (UniProt P27448)
MELK (human) = MELK (human) (UniProt Q14680)
MERTK (human) = MERTK (human) (UniProt Q12866)
MYLK2 (human) = MYLK2 (human) (UniProt Q9H1R3)
MYO3B (human) = MYO3B (human) (UniProt Q8WXR4)
Chain of MYO3B (human) (Q8WXR4 whole entry, looked up): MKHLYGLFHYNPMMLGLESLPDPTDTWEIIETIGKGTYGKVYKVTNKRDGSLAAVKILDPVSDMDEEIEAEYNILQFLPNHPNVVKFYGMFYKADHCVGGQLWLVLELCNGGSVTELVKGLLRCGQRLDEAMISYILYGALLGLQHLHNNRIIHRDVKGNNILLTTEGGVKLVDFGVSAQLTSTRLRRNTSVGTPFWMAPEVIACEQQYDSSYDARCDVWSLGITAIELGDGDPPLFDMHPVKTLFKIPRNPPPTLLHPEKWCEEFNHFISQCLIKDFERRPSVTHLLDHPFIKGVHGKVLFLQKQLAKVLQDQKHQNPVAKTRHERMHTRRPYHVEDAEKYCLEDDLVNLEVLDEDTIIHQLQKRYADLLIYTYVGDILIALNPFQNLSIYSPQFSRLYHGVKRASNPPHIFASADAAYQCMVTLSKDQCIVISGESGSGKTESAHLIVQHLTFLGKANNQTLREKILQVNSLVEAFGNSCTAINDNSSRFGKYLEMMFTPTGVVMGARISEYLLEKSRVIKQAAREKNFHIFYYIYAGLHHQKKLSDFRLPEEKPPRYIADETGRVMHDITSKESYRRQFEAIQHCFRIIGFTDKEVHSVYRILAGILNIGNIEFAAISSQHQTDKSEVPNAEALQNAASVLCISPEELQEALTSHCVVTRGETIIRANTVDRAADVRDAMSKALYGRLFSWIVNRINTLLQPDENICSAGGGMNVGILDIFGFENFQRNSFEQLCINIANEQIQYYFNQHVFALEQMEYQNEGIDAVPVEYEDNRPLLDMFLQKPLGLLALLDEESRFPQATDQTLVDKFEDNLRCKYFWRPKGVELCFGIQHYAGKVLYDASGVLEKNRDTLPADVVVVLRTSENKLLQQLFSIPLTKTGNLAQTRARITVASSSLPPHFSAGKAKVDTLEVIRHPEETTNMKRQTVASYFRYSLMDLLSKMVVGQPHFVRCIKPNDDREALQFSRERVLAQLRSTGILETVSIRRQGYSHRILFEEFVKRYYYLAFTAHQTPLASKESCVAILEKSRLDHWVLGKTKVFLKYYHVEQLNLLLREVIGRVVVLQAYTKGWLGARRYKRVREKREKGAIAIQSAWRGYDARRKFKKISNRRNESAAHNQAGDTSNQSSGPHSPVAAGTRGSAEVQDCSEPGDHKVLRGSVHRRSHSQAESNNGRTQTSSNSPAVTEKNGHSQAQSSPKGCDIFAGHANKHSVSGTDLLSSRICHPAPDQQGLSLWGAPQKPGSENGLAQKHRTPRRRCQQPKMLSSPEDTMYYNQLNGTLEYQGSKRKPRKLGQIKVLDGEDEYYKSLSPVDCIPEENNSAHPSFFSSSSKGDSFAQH

NEK9 (human) = NEK9 (human) (UniProt Q8TD19)
NUAK1 (human) = NUAK1 (human) (UniProt O60285)
PAK6 (human) = PAK6 (human) (UniProt Q9NQU5)
PAK7 (human) = PAK7 (human) (UniProt Q9P286)
PDGFRA (human) = PDGFRA (human) (UniProt P16234)
PIK3CD (human) = PIK3CD (human) (UniProt O00329)
RPS6KA4 KD2 (human) = RPS6KA4 KD2 (human) (UniProt O75676)
SLK (human) = SLK (human) (UniProt Q9H2G2)
STK32C (human) = STK32C (human) (UniProt Q86UX6)
Chain of STK32C (human) (Q86UX6 whole entry, looked up): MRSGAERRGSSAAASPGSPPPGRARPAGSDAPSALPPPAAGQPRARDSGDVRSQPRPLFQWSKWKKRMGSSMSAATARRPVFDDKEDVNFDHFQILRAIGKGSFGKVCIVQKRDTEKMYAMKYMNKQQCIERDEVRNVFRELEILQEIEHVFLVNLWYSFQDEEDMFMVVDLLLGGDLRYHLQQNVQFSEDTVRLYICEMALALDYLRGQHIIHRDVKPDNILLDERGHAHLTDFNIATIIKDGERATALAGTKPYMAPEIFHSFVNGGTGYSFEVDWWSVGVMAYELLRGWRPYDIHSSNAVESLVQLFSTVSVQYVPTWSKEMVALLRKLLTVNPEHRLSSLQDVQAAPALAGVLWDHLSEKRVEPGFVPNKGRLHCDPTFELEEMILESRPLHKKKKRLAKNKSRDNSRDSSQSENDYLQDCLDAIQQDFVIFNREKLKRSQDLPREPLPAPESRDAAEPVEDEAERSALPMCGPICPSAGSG

STK4 (human) = STK4 (human) (UniProt Q13043)
Chain of STK4 (human) (Q13043 whole entry, looked up): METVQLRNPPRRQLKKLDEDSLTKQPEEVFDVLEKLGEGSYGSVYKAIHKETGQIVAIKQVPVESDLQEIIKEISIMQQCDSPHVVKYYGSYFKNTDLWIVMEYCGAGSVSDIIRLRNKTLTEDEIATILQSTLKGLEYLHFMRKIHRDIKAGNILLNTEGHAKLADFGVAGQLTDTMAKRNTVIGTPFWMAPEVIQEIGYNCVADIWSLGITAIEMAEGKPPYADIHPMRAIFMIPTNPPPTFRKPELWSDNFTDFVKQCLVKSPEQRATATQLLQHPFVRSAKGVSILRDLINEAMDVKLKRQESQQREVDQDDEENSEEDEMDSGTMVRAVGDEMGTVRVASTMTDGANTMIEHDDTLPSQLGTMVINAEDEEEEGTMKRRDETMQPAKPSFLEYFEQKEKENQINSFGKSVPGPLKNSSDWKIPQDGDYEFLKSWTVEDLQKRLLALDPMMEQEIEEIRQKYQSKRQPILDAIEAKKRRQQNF

TLK2 (human) = TLK2 (human) (UniProt Q86UE8)

Chain of AURKC (human) (Q9UQB9 whole entry, looked up): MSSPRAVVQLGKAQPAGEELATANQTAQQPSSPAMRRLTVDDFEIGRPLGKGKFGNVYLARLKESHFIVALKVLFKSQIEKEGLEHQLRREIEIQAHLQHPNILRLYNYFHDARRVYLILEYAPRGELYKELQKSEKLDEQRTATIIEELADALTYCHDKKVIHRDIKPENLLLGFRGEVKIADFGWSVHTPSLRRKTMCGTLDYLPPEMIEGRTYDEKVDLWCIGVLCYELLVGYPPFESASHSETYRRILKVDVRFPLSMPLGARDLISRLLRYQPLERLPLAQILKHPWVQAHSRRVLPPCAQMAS
Chain of CDK9 (human) (P50750 whole entry, looked up): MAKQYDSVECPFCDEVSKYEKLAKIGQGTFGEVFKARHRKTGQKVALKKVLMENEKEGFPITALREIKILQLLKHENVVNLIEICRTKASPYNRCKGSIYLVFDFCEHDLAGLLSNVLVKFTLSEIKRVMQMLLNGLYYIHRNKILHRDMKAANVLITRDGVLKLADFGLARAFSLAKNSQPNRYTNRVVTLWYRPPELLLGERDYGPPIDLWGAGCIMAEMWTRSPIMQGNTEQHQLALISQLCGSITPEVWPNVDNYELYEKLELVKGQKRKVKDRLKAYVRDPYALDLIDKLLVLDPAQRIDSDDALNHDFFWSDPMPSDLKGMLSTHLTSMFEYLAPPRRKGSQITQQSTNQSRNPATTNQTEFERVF
Chain of CAMK2D (human) (Q13557 whole entry, looked up): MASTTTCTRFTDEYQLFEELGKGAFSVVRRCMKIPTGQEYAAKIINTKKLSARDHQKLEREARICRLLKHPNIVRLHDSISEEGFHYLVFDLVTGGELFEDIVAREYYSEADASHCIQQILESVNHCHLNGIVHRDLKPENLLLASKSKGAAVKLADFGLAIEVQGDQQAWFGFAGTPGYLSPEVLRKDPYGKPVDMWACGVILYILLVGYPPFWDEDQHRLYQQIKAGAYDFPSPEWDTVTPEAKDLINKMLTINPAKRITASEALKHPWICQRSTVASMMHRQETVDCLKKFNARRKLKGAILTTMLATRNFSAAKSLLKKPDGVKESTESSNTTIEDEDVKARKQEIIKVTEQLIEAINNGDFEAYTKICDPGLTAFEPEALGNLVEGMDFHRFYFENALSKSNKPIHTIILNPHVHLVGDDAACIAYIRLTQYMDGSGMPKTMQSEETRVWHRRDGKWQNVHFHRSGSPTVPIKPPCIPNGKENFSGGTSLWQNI

| kinase still bound, per cent of control (ADCK3 (human)) | kinase still bound, per cent of control (AURKC (human)) | kinase still bound, per cent of control (BMPR2 (human)) | kinase still bound, per cent of control (CAMK1D (human)) | kinase still bound, per cent of control (CAMK2D (human)) | kinase still bound, per cent of control (CAMK2G (human)) | kinase still bound, per cent of control (CDK9 (human)) | kinase still bound, per cent of control (CLK1 (human)) | kinase still bound, per cent of control (CLK3 (human)) | kinase still bound, per cent of control (CSK (human)) | kinase still bound, per cent of control (CSNK1D (human)) | kinase still bound, per cent of control (CSNK1G2 (human)) | kinase still bound, per cent of control (CSNK1G3 (human)) | kinase still bound, per cent of control (DCLK3 (human)) | kinase still bound, per cent of control (EPHA8 (human)) | kinase still bound, per cent of control (FYN (human)) | kinase still bound, per cent of control (INSR (human)) | kinase still bound, per cent of control (INSRR (human)) | kinase still bound, per cent of control (LIMK1 (human)) | kinase still bound, per cent of control (LYN (human)) | SMILES | also measured |
| --- | --- | --- | --- | --- | --- | --- | --- | --- | --- | --- | --- | --- | --- | --- | --- | --- | --- | --- | --- | --- | --- |
| 100% | 100% | 100% | 17% | 100% | 34% | 100% | 18% | 100% | 100% | 100% | 100% | 100% | 100% | 100% | 100% | 100% | 26% | 100% | 100% | COc1cc(C(=O)NC2CCN(C)CC2)ccc1Nc1ncc2c(n1)N(C1CCCC1)C(C)CC(=O)N2C (stereo not given) | kinase still bound, per cent of control (MAPK11 (human)): 100%; kinase still bound, per cent of control (MAPK12 (human)): 100%; kinase still bound, per cent of control (MAPK8 (human)): 100%; kinase still bound, per cent of control (MAPKAPK5 (human)): 100%; kinase still bound, per cent of control (MARK3 (human)): 100%; kinase still bound, per cent of control (MELK (human)): 100%; kinase still bound, per cent of control (MERTK (human)): 100%; kinase still bound, per cent of control (MYLK2 (human)): 100%; kinase still bound, per cent of control (MYO3B (human)): 100%; kinase still bound, per cent of control (NEK9 (human)): 100%; kinase still bound, per cent of control (NUAK1 (human)): 100%; kinase still bound, per cent of control (PAK6 (human)): 100%; kinase still bound, per cent of control (PAK7 (human)): 100%; kinase still bound, per cent of control (PDGFRA (human)): 100%; kinase still bound, per cent of control (PIK3CD (human)): 100%; kinase still bound, per cent of control (RPS6KA4 KD2 (human)): 100%; kinase still bound, per cent of control (SLK (human)): 1.4%; kinase still bound, per cent of control (STK32C (human)): 100%; kinase still bound, per cent of control (STK4 (human)): 100%; kinase still bound, per cent of control (TLK2 (human)): 100% |
| 100% | 4.5% | 8.6% | 27% | 100% | 100% | 100% | 13% | 100% | 100% | 100% | 100% | 100% | 0.35% | 100% | 100% | 17% | 13% | 100% | 100% | C=CC(=O)Nc1cccc(Oc2nc(Nc3ccc(N4CCN(C)CC4)cc3OC)ncc2Cl)c1 | kinase still bound, per cent of control (MAPK11 (human)): 100%; kinase still bound, per cent of control (MAPK12 (human)): 100%; kinase still bound, per cent of control (MAPK8 (human)): 17%; kinase still bound, per cent of control (MAPKAPK5 (human)): 100%; kinase still bound, per cent of control (MARK3 (human)): 7.8%; kinase still bound, per cent of control (MELK (human)): 14%; kinase still bound, per cent of control (MERTK (human)): 100%; kinase still bound, per cent of control (MYLK2 (human)): 100%; kinase still bound, per cent of control (MYO3B (human)): 100%; kinase still bound, per cent of control (NEK9 (human)): 100%; kinase still bound, per cent of control (NUAK1 (human)): 0.65%; kinase still bound, per cent of control (PAK6 (human)): 100%; kinase still bound, per cent of control (PAK7 (human)): 100%; kinase still bound, per cent of control (PDGFRA (human)): 100%; kinase still bound, per cent of control (PIK3CD (human)): 100%; kinase still bound, per cent of control (RPS6KA4 KD2 (human)): 16%; kinase still bound, per cent of control (SLK (human)): 100%; kinase still bound, per cent of control (STK32C (human)): 100%; kinase still bound, per cent of control (STK4 (human)): 100%; kinase still bound, per cent of control (TLK2 (human)): 100% |

| SMILES | kinase still bound, per cent of control (ADCK3 (human)) | kinase still bound, per cent of control (AURKC (human)) | kinase still bound, per cent of control (BMPR2 (human)) | kinase still bound, per cent of control (CAMK1D (human)) | kinase still bound, per cent of control (CAMK2D (human)) | kinase still bound, per cent of control (CAMK2G (human)) | kinase still bound, per cent of control (CDK9 (human)) | kinase still bound, per cent of control (CLK1 (human)) | kinase still bound, per cent of control (CLK3 (human)) | kinase still bound, per cent of control (CSK (human)) | kinase still bound, per cent of control (CSNK1D (human)) | kinase still bound, per cent of control (CSNK1G2 (human)) | kinase still bound, per cent of control (CSNK1G3 (human)) | kinase still bound, per cent of control (DCLK3 (human)) | kinase still bound, per cent of control (EPHA8 (human)) | kinase still bound, per cent of control (FYN (human)) | kinase still bound, per cent of control (INSR (human)) | kinase still bound, per cent of control (INSRR (human)) | kinase still bound, per cent of control (LIMK1 (human)) | kinase still bound, per cent of control (LYN (human)) | also measured |
| --- | --- | --- | --- | --- | --- | --- | --- | --- | --- | --- | --- | --- | --- | --- | --- | --- | --- | --- | --- | --- | --- |
| C=CC(=O)Nc1cc(NC(=O)c2ccc(C)c(NC(=O)c3ccno3)c2)cc(C(F)(F)F)c1 | 100% | 100% | 100% | 83% | 83% | 89% | 100% | 93% | 100% | 71% | 100% | 100% | 96% | 100% | 3.6% | 73% | 92% | 100% | 100% | 34% | kinase still bound, per cent of control (MAPK11 (human)): 4.8%; kinase still bound, per cent of control (MAPK12 (human)): 96%; kinase still bound, per cent of control (MAPK8 (human)): 100%; kinase still bound, per cent of control (MAPKAPK5 (human)): 83%; kinase still bound, per cent of control (MARK3 (human)): 67%; kinase still bound, per cent of control (MELK (human)): 100%; kinase still bound, per cent of control (MERTK (human)): 99%; kinase still bound, per cent of control (MYLK2 (human)): 100%; kinase still bound, per cent of control (MYO3B (human)): 100%; kinase still bound, per cent of control (NEK9 (human)): 100%; kinase still bound, per cent of control (NUAK1 (human)): 100%; kinase still bound, per cent of control (PAK6 (human)): 100%; kinase still bound, per cent of control (PAK7 (human)): 94%; kinase still bound, per cent of control (PDGFRA (human)): 41%; kinase still bound, per cent of control (PIK3CD (human)): 100%; kinase still bound, per cent of control (RPS6KA4 KD2 (human)): 94%; kinase still bound, per cent of control (SLK (human)): 100%; kinase still bound, per cent of control (STK32C (human)): 100%; kinase still bound, per cent of control (STK4 (human)): 99%; kinase still bound, per cent of control (TLK2 (human)): 100% |

Source: the kinase profiling compilation of Christmann-Franck et al. (2016)
